# Results taken from patent US11117869B2, “Compounds, compositions and methods for treatment of myopia” (Aerie Pharmaceuticals, Inc., priority 2019, dated 2021).
# Tests used:
# [1] = Topical eye drop composition (Table 3): intraocular pressure; type: in vivo
# [2] = Topical eye drop composition (Table 3): allergic symptoms, dry eye, hyperemia, irritation
# [3] = tested on: myopia; test: Topical eye drop composition (Table 3): myopia progression or onset; details: drop 2 times per day, human subject
smiles,measurement,setting,value
"CN1C2CCC1CC(NC(=O)[C@H](CN)c1ccc(CO)cc1)C2 (stereo partly drawn) [Compound E20S, (S)-3-amino-2-(4-(hydroxymethyl)phenyl)-N-((1R,3-endo,5S)-8-methyl-8-azabicyclo[3.2.]octan-3-yl)propanamide ditosylate]",intraocular pressure,[1],substantially decreases
same,allergic symptoms,[2]; in vivo,substantially decreases
CN1C2CCC1CC(OC(=O)C(CO)c1cccc(Cl)c1)C2 (centres unmarked) [Compound E21],intraocular pressure,[1],substantially decreases
CN1C2CCC1CC(OC(=O)C(C)(CO)c1ccccc1)C2 (centres unmarked) [Compound E22R],"hyperemia, redness and ocular irritation",[2]; drop as needed,substantially decreases
CN1C2CCC1CC(NC(=O)C(CO)c1ccccc1)C2 (centres unmarked) [Compound E23],rate of myopia progression,[3],substantially decreases
